In general, fraction remaining refers to the share of the starting amount still present when the sample was taken. As usually defined, the solubility is how much of the substance goes into solution per volume.

Values after ≈ are worked out from the molar mass of the structure shown. Some results are limits rather than exact numbers.

The nature of data set [1]: Particle size after micronization (Example 6). It is filed as physicochemical. As to conditions: micronized. An excerpt:
The micronization of the axitinib-N-m (PEG)2-oxymethyl prodrug obtained in Example 6 in a dry dispersion was D90=12.4 μm; D50=3.6 μm and D10=0.6 μm and dispersed in water was D90=12.2 μm; D50=5.2 μm and D10=1.1 μm.

Data set [2] in a line: Stability in phosphate buffer saline (Example 8). It is filed as physicochemical. The following applies: PBS, pH-7.40; for remaining at 24 h / remaining at 72 h / remaining at 168 h: phosphate buffer saline, pH 7.4, read-out: % remaining compared to Day 0; for remaining at 24 h: Day 1; for remaining at 72 h: Day 3; for remaining at 168 h: Day 7. Here is the method: Axitinib prodrugs of the present invention were tested for stability in phosphate buffer saline (PBS, pH-7.40).

A short description of data set [3]: Solubility of axitinib prodrugs in phosphate buffer saline (Example 7). The following applies: phosphate buffer saline (PBS, pH-7.40). It is filed as physicochemical. Here is the method: Axitinib prodrugs of the present invention were tested for solubility in phosphate buffer saline (PBS, pH-7.40).
A short description of data set [4]: Solubility of axitinib and prodrug in phosphate buffer saline pH 7.4, 24 hour at 22 °C (Example 2). It is filed as physicochemical. Here is the method: Solubility testing was performed with the following test items and conditions: • Test items: axitinib (99.99% purity by HPLC); axitinib-N-mPEG-succinoyloxymethyl prodrug (93.6% purity by HPLC) • Test media: phosphate buffer saline pH 7.4 • Incubation condition: 24 hour at 22 °C with continuous shaking • Test concentration: 1 mg/mL • Data analysis: Solubility of test item was determined by HPLC analysis with calibration curve

For data set [5] the following is noted: cited from earlier work.
The mark [6] stands for this setting: phosphate buffer saline pH 7.4, 24 hour at 22 °C, continuous shaking, test concentration 1 mg/mL, HPLC.

In data set [1] (dispersed in water), `CNC(=O)c1ccccc1Sc1ccc2c(/C=C/c3ccccn3)nn(COC(=O)CCOCCOC)c2c1` [Axitinib-N-m(PEG)2-oxymethyl prodrug] came in with a D10 of 1.1 μm, a D50 of 5.2 μm and a D90 of 12.2 μm. Besides, in data set [1] (dry dispersion), the D10 is listed as 0.6 μm, the D50 is listed as 3.6 μm and the D90 is recorded as 12.4 μm. Further, in data set [2], the “% remaining compared to Day 0” value worked out at 100.00%, the fraction remaining at 24 h turned out to be 45.9%, the amount remaining at 72 h is 30.5% and the fraction remaining at 168 h came out at 16.9%. Besides, the solubility in data set [3] (pH 7.4, read-out: Solubility) is 1.1 µg/mL (≈ 2.01 µM).
Turning to `CNC(=O)c1ccccc1Sc1ccc2c(/C=C/c3ccccn3)nn(COC(=O)CCOCCOCCOC)c2c1` [Axitinib-N-m(PEG)3-oxymethyl prodrug], in data set [2], the “% remaining compared to Day 0” value came to 100.00%, the share remaining at 24 h was found to be 53.9%, the share remaining at 72 h turned out to be 24% and the fraction remaining at 168 h is 12.7%. In addition, in data set [3] (pH 7.4, read-out: Solubility), the solubility turned out to be 6.16 µg/mL (≈ 10.4 µM).
In the case of “axitinib-N-mPEG-succinoyloxymethyl [N-mPEG succinoyloxymethyl Prodrug]”, the solubility in data set [4] (setting [6]) and in data set [3] was 99.37 µg/mL in each case. In addition, the “solubility enhancement of prodrug” value in data set [4] (versus axitinib) is listed as ~ 500 ×.
As for `CNC(=O)c1ccccc1Sc1ccc2c(/C=C/c3ccccn3)nn(COC(=O)CCOC)c2c1` [Axitinib-N-m(PEG)1-oxymethyl prodrug], in data set [2], the “% remaining compared to Day 0” value was determined as 100.00%, the amount remaining at 24 h came to 38.8%, the amount remaining at 72 h was 6.7% and the amount remaining at 168 h turned out to be 5%. Moreover, the solubility result in data set [3] is listed as “Not Soluble”.
With `CNC(=O)c1ccccc1Sc1ccc2c(/C=C/c3ccccn3)nn(COC(=O)CCC(=O)O)c2c1` [Axitinib-N-Succinoyloxymethyl Prodrug], the solubility in data set [3] (pH 7.4, read-out: Solubility) worked out at 217 µg/mL (≈ 421 µM).
In the case of `CNC(=O)c1ccccc1Sc1ccc2c(/C=C/c3ccccn3)n[nH]c2c1` [Axitinib, axitinib, reference compound], in data set [4] (setting [6]), the solubility at 24 h is under 0.78 µg/mL. Moreover, the literature reported solubility entry in data set [5] is on record as “about 0.2 mcg/mL”. In data set [2], the “% remaining compared to Day 0” value turned out to be 100.00%, the fraction remaining at 24 h was 96.7%, the fraction remaining at 72 h was 96.2% and the fraction remaining at 168 h was 91.8%.
